According to patent US6355799B1, “Substituted benzene compounds, process for their preparation, and herbicidal and defoliant compositions containing them” (ISK Americas Incorporated, priority 1997, dated 2002):

What was measured:
Format in all cases: in vivo
[1] = test system: redroot pigweed (Amaranthus retroflexus, AMARE); experiment: Pre-emerge test, greenhouse herbicide activity screening; conditions: phytotoxicity rating 0-100, 14 days after application
In short: (§1)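 Plants grown in 10 cm pots of sandy loam mix received acetone-dissolved compounds through a moving flat-fan nozzle. Doses ranged from 15 to 1000 g ai/ha. Pre-emerge pots were seeded one day earlier, post-emerge pots 8–21 days earlier. Fourteen days on, each pot was graded 0–100 for damage.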

[2] = test system: barnyardgrass (Echinochloa crus-galli, ECHCG); experiment: as above; conditions: phytotoxicity rating 0-100, 14 days after application
In short: as §1

[3] = test system: common ragweed (Ambrosia artemisizfolia L., AMBEL); experiment: as above; conditions: phytotoxicity rating 0-100, 14 days after application
In short: as §1

[4] = test system: green foxtail (Setaria viridis, SETVI); experiment: as above; conditions: phytotoxicity rating 0-100, 14 days after application
In short: as §1

[5] = test system: ivyleaf morningglory (Ipomoea hederacea, IPOHE); experiment: as above; conditions: phytotoxicity rating 0-100, 14 days after application
In short: as §1

[6] = test system: johnsongrass (Sorghum halepense, SORHA); experiment: as above; conditions: phytotoxicity rating 0-100, 14 days after application
In short: as §1

[7] = test system: lambsquarters (Chenopodium album, CHEAL); experiment: as above; conditions: phytotoxicity rating 0-100, 14 days after application
In short: as §1

[8] = test system: large crabgrass (Digitaria sanguinalis, DIGSA); experiment: as above; conditions: phytotoxicity rating 0-100, 14 days after application
In short: as §1

[9] = test system: sicklepod (Cassia obtusifolia, CASOB); experiment: as above; conditions: phytotoxicity rating 0-100, 14 days after application
In short: as §1

[10] = test system: velvetleaf (Abutilon theophrasti, ABUTH); experiment: as above; conditions: phytotoxicity rating 0-100, 14 days after application
In short: as §1

[11] = test system: field corn (Zea mays L., var. Dekalb 535, CORN); experiment: Pre-emerge test, crop safety; conditions: crop damage rating 0-100, 14 days after application
In short: (§2)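 Compounds in acetone were track-sprayed at 187 l/ha, 15–1000 g ai/ha, onto sandy loam pots. Pre-emerge seeds were sown one day before spraying, with surface watering afterwards. Post-emerge plants were at the 2–3 leaf stage and sprayed with 0.25% v/v non-ionic surfactant. Injury was rated 0–100 at 14 days.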

[12] = test system: upland rice (Oryza sp., var. Tebonnet, RICE); experiment: Pre-emerge test, crop safety; conditions: crop damage rating 0-100, 14 days after application
In short: as §2

[13] = test system: barnyardgrass (Echinochloa crus-galli, ECHCG); experiment: Post-emerge test, greenhouse herbicide activity screening; conditions: post-emerge, 14 days after application, rating scale 0-100
In short: (§3)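 Applied at 15–1000 g ai/ha from acetone in 187 l/ha spray volume. Post-emergence applications included 0.25% v/v non-ionic surfactant and reached plants sown 8–21 days before. Pre-emergence applications were incorporated by surface watering. Efficacy or crop damage was rated on a 0–100 scale after 14 days.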

[14] = test system: green foxtail (Setaria viridis, SETVI); experiment: as above; conditions: post-emerge, 14 days after application, rating scale 0-100
In short: as §3

[15] = test system: ivyleaf morningglory (Ipomoea hederacea, IPOHE); experiment: as above; conditions: post-emerge, 14 days after application, rating scale 0-100
In short: as §3

[16] = test system: johnsongrass (Sorghum halepense, SORHA); experiment: as above; conditions: post-emerge, 14 days after application, rating scale 0-100
In short: as §3

[17] = test system: lambsquarters (Chenopodium album, CHEAL); experiment: as above; conditions: post-emerge, 14 days after application, rating scale 0-100
In short: as §3

[18] = test system: large crabgrass (Digitaria sanguinalis, DIGSA); experiment: as above; conditions: post-emerge, 14 days after application, rating scale 0-100
In short: as §3

[19] = test system: redroot pigweed (Amaranthus retroflexus, AMARE); experiment: as above; conditions: post-emerge, 14 days after application
In short: as §3

[20] = test system: sicklepod (Cassia obtusifolia, CASOB); experiment: as above; conditions: post-emerge, 14 days after application, rating scale 0-100
In short: as §3

[21] = test system: velvetleaf (Abutilon theophrasti, ABUTH); experiment: as above; conditions: post-emerge, 14 days after application, rating scale 0-100
In short: as §3

[22] = test system: field corn (Zea mays L., var. Dekalb 535, CORN); experiment: Post-emerge test, crop safety; conditions: post-emerge, 14 days after application, rating scale 0-100
In short: (§4)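 Each test used a mechanized track sprayer delivering 187 l/ha of acetone solution at 15–1000 g ai/ha. Post-emerge foliage at 2–3 leaves was treated with added 0.25% v/v non-ionic surfactant and bottom-watered only. Injury was assessed on day 14, where 100 means total kill.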

[23] = test system: upland rice (Oryza sp., var. Tebonnet, RICE); experiment: Post-emerge test, crop safety; conditions: post-emerge, 14 days after application, rating scale 0-100
In short: as §4

[24] = 63 g ai/ha, rating scale 0-100 (0 no damage, 100 complete death)
[25] = 250 g ai/ha, rating scale 0-100

For `Cn1c(C(F)(F)F)cc(=O)n(-c2ccc(Cl)cc2NC(=O)OCc2ccccc2F)c1=O` [4-49], the “Pre-emerge Herbicidal Activity AMARE” value ([1]; 63 g ai/ha) was 100, the “Pre-emerge Herbicidal Activity AMARE” value ([1]; 250 g ai/ha) was 100 and the “Pre-emerge Herbicidal Activity ECHCG” value ([2]; 63 g ai/ha) was 10. The “Pre-emerge Herbicidal Activity ECHCG” value ([2]; 250 g ai/ha) was 75, the “Pre-emerge Herbicidal Activity AMBEL” value ([3]; 63 g ai/ha) was 80 and the “Pre-emerge Herbicidal Activity AMBEL” value ([3]; 250 g ai/ha) was 60. The “Pre-emerge Herbicidal Activity SETVI” value ([4]; 63 g ai/ha) was 70, the “Pre-emerge Herbicidal Activity SETVI” value ([4]; 250 g ai/ha) was 100 and the “Pre-emerge Herbicidal Activity IPOHE” value ([5]; 63 g ai/ha) was 40. The “Pre-emerge Herbicidal Activity IPOHE” value ([5]; 250 g ai/ha) was 100, the “Pre-emerge Herbicidal Activity SORHA” value ([6]; 63 g ai/ha) was 50 and the “Pre-emerge Herbicidal Activity SORHA” value ([6]; 250 g ai/ha) was 90. For the same molecule, the “Pre-emerge Herbicidal Activity CHEAL” value ([7]; 63 g ai/ha) was 100, the “Pre-emerge Herbicidal Activity CHEAL” value ([7]; 250 g ai/ha) was 100 and the “Pre-emerge Herbicidal Activity DIGSA” value ([8]; 63 g ai/ha) was 70. For the same molecule, the “Pre-emerge Herbicidal Activity DIGSA” value ([8]; 250 g ai/ha) was 100, the “Pre-emerge Herbicidal Activity CASOB” value ([9]; 63 g ai/ha) was 30 and the “Pre-emerge Herbicidal Activity CASOB” value ([9]; 250 g ai/ha) was 60. For the same molecule, the “Pre-emerge Herbicidal Activity ABUTH” value ([10]; 63 g ai/ha) was 95, the “Pre-emerge Herbicidal Activity ABUTH” value ([10]; 250 g ai/ha) was 100 and the “Pre-emerge Herbicidal Activity CORN” value ([11]; 63 g ai/ha) was 0. The “Pre-emerge Herbicidal Activity CORN” value ([11]; 250 g ai/ha) was 15, the “Pre-emerge Herbicidal Activity RICE” value ([12]; 63 g ai/ha) was 30 and the “Pre-emerge Herbicidal Activity RICE” value ([12]; 250 g ai/ha) was 25. For the same molecule, the “phytotoxicity rating ECHCG” value ([13]; 63 g ai/ha) was 10, the “phytotoxicity rating ECHCG” value ([13]; 250 g ai/ha) was 10 and the “phytotoxicity rating SETVI” value ([14]; 63 g ai/ha) was 30. For the same molecule, the “phytotoxicity rating SETVI” value ([14]; 250 g ai/ha) was 30, the “phytotoxicity rating IPOHE” value ([15]; 63 g ai/ha) was 80 and the “phytotoxicity rating IPOHE” value ([15]; 250 g ai/ha) was 100. The “phytotoxicity rating SORHA” value ([16]; 63 g ai/ha) was 0, the “phytotoxicity rating SORHA” value ([16]; 250 g ai/ha) was 10 and the “phytotoxicity rating CHEAL” value ([17]; 63 g ai/ha) was 100. The “phytotoxicity rating CHEAL” value ([17]; 250 g ai/ha) was 100, the “phytotoxicity rating DIGSA” value ([18]; 63 g ai/ha) was 10 and the “phytotoxicity rating DIGSA” value ([18]; 250 g ai/ha) was 10. For the same molecule, the “phytotoxicity rating AMARE” value [19, 24] was 100, the “phytotoxicity rating AMARE” value [19, 25] was 100 and the “phytotoxicity rating CASOB” value ([20]; 63 g ai/ha) was 80. The “phytotoxicity rating CASOB” value ([20]; 250 g ai/ha) was 100, the “phytotoxicity rating ABUTH” value ([21]; 63 g ai/ha) was 100 and the “phytotoxicity rating ABUTH” value ([21]; 250 g ai/ha) was 100. For the same molecule, the “phytotoxicity rating CORN (crop damage)” value ([22]; 63 g ai/ha) was 20, the “phytotoxicity rating CORN (crop damage)” value ([22]; 250 g ai/ha) was 80 and the “phytotoxicity rating RICE (crop damage)” value ([23]; 63 g ai/ha) was 10. The “phytotoxicity rating RICE (crop damage)” value ([23]; 250 g ai/ha) was 70.

With `Cn1c(C(F)(F)F)cc(=O)n(-c2ccc(Cl)cc2NC(=O)Oc2ccccc2)c1=O` [4-50] the “Pre-emerge Herbicidal Activity AMARE” value ([1]; 63 g ai/ha) was 20, the “Pre-emerge Herbicidal Activity AMARE” value ([1]; 250 g ai/ha) was 100 and the “Pre-emerge Herbicidal Activity ECHCG” value ([2]; 63 g ai/ha) was 0. The “Pre-emerge Herbicidal Activity ECHCG” value ([2]; 250 g ai/ha) was 0, the “Pre-emerge Herbicidal Activity AMBEL” value ([3]; 63 g ai/ha) was 0 and the “Pre-emerge Herbicidal Activity AMBEL” value ([3]; 250 g ai/ha) was 0. The “Pre-emerge Herbicidal Activity SETVI” value ([4]; 63 g ai/ha) was 0, the “Pre-emerge Herbicidal Activity SETVI” value ([4]; 250 g ai/ha) was 10 and the “Pre-emerge Herbicidal Activity IPOHE” value ([5]; 63 g ai/ha) was 0. For the same molecule, the “Pre-emerge Herbicidal Activity IPOHE” value ([5]; 250 g ai/ha) was 30, the “Pre-emerge Herbicidal Activity SORHA” value ([6]; 63 g ai/ha) was 0 and the “Pre-emerge Herbicidal Activity SORHA” value ([6]; 250 g ai/ha) was 0. For the same molecule, the “Pre-emerge Herbicidal Activity CHEAL” value ([7]; 63 g ai/ha) was 40, the “Pre-emerge Herbicidal Activity CHEAL” value ([7]; 250 g ai/ha) was 100 and the “Pre-emerge Herbicidal Activity DIGSA” value ([8]; 63 g ai/ha) was 0. The “Pre-emerge Herbicidal Activity DIGSA” value ([8]; 250 g ai/ha) was 30, the “Pre-emerge Herbicidal Activity CASOB” value ([9]; 63 g ai/ha) was 0 and the “Pre-emerge Herbicidal Activity CASOB” value ([9]; 250 g ai/ha) was 0. For the same molecule, the “Pre-emerge Herbicidal Activity ABUTH” value ([10]; 63 g ai/ha) was 20, the “Pre-emerge Herbicidal Activity ABUTH” value ([10]; 250 g ai/ha) was 100 and the “Pre-emerge Herbicidal Activity CORN” value ([11]; 63 g ai/ha) was 0. For the same molecule, the “Pre-emerge Herbicidal Activity CORN” value ([11]; 250 g ai/ha) was 0, the “Pre-emerge Herbicidal Activity RICE” value ([12]; 63 g ai/ha) was 0 and the “Pre-emerge Herbicidal Activity RICE” value ([12]; 250 g ai/ha) was 10. The “phytotoxicity rating ECHCG” value ([13]; 63 g ai/ha) was 0, the “phytotoxicity rating ECHCG” value ([13]; 250 g ai/ha) was 0 and the “phytotoxicity rating SETVI” value ([14]; 63 g ai/ha) was 0. The “phytotoxicity rating SETVI” value ([14]; 250 g ai/ha) was 0, the “phytotoxicity rating IPOHE” value ([15]; 63 g ai/ha) was 30 and the “phytotoxicity rating IPOHE” value ([15]; 250 g ai/ha) was 90. The “phytotoxicity rating SORHA” value ([16]; 63 g ai/ha) was 0, the “phytotoxicity rating SORHA” value ([16]; 250 g ai/ha) was 0 and the “phytotoxicity rating CHEAL” value ([17]; 63 g ai/ha) was 40. For the same molecule, the “phytotoxicity rating CHEAL” value ([17]; 250 g ai/ha) was 95, the “phytotoxicity rating DIGSA” value ([18]; 63 g ai/ha) was 0 and the “phytotoxicity rating DIGSA” value ([18]; 250 g ai/ha) was 0. The “phytotoxicity rating AMARE” value [19, 24] was 30, the “phytotoxicity rating AMARE” value [19, 25] was 70 and the “phytotoxicity rating CASOB” value ([20]; 63 g ai/ha) was 0. The “phytotoxicity rating CASOB” value ([20]; 250 g ai/ha) was 20, the “phytotoxicity rating ABUTH” value ([21]; 63 g ai/ha) was 60 and the “phytotoxicity rating ABUTH” value ([21]; 250 g ai/ha) was 95. The “phytotoxicity rating CORN (crop damage)” value ([22]; 63 g ai/ha) was 0, the “phytotoxicity rating CORN (crop damage)” value ([22]; 250 g ai/ha) was 10 and the “phytotoxicity rating RICE (crop damage)” value ([23]; 63 g ai/ha) was 0. The “phytotoxicity rating RICE (crop damage)” value ([23]; 250 g ai/ha) was 0.
